Measured values published in paper PMC3618488 (Chemical communications (Cambridge, England), 2013).
Read-outs that look alike come from different tables or passages of the source.

Target: Pseudomonas aeruginosa elastase (LasB) (Pseudomonas aeruginosa, UniProt P14756)
Assay: biochemical
Assay type: biochemical
Conditions: for fold reduction in potency relative to tropolone (3): against LasB, compared with 3

Chain of Pseudomonas aeruginosa elastase (LasB) (P14756 198-498): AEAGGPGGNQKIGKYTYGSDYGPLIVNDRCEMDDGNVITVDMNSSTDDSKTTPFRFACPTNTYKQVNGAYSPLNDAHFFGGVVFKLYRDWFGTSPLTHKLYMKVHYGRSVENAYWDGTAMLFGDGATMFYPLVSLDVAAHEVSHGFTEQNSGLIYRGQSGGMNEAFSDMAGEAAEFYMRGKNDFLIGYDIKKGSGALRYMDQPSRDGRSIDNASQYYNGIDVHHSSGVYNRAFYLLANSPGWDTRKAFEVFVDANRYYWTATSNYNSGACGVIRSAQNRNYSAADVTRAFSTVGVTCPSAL

Row | Compound | IC50 [µM] | fold reduction in potency relative to tropolone (3) | IC50 (read-out: IC50 for LasB inhibition) [µM]
1 | CC(C)c1cccc(=O)c(O)c1 [compound 5, β-thujaplicin] | 1340 ± 370 | ~ 3 fold | 
2 | Nc1ccc(O)c(=O)cc1 [compound 6, 5-aminotropolone] |  |  | 180 ± 1
3 | acetyltropolone [compound 4] |  | ~ 3 fold | 
